Consider four molecules from patent US20220306695A1, “COMPSTATIN ANALOGUES AND THEIR MEDICAL USES” (priority 2019, published 2022).

Positions of bridges follow the written chain, without caps; N, C: chain ends. Non-standard residues stand in square brackets, D forms with d. Residues, ends and D or L forms follow the SMILES beside them. Trp(1-Me) = Cn1cc(C[C@H](N)C(=O)O)c2ccccc21; Sar = CNCC(=O)O

A short description of one series: in vivo. The arrangement: species or system Cynomolgus monkeys (Macaca fascicularis). Conditions: male, cynomolgus monkey, sc, 1840 nmol/kg, t½. The gist of the method: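 Healthy male cynomolgus monkeys dosed once subcutaneously at 1840 nmol/kg in 20 mM phosphate pH 7.5 with mannitol. Serum sampled pre-dose to 120 h and total drug measured by SPE and LC-MS/MS. Terminal half-life calculated non-compartmentally as ln(2)/λz from the terminal log-linear phase.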

Series [1] can be described thus: Solubility test at 10 mg/mL (visual inspection and light scattering). Format: physicochemical. The following applies: for Solubility, Condition 1 Acetate pH 4: 10 mg/mL compound in 100 mM acetate pH 4; for Solubility, Condition 2 Acetate pH 5: 10 mg/mL compound in 100 mM acetate pH 5; for Solubility, Condition 3 Phosphate pH 6: 10 mg/mL compound in 100 mM phosphate pH 6; for Solubility, Condition 4 Phosphate pH 7: 10 mg/mL compound in 100 mM phosphate pH 7; for Solubility, Condition 5 Phosphate pH 7.5: 10 mg/mL compound in 100 mM phosphate pH 7.5.

Series [2] relates to classical complement pathway. Description: In vitro haemolysis assay (inhibition of classical complement pathway). The series is classed as cell-based, human. Conditions: Table 3; human serum, sensitized sheep red blood cells; read-out: IC50[nM], in vitro analysis of inhibition of hemolysis. The gist of the method: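 Serially diluted compound (9 points) was preincubated 15 min at room temperature with diluted human serum, titrated per batch to give 70-90% maximal haemolysis, in Tris/casein buffer pH 7.4 with Mg2+/Ca2+. Antibody-sensitized sheep erythrocytes were then added for 30 min at 37° C, and the reaction was stopped with EDTA. Haemolysis was read at A405, with IC50 from 4PL fit.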

Series [3] deals with alternative complement pathway. Kind of series: Ex vivo alternative pathway complement activity (WIESLAB kit) in serum of dosed non-human primates. Conditions: NHP, subcutaneous 1840 nmol/kg, FIG. 1. Also on record: species or system Cynomolgus monkeys (Macaca fascicularis). As for the experimental part:
FIG. 1(a-g): Normalized “ex vivo” activity of the alternative complement pathway over time after administration of a test compound at time 0 to non-human primates. Compounds were given subcutaneously at a dose of 1840 nmol/kg. Complement activity (alternative pathway) was measured using the Wieslab kit. Activity was normalized using the predose (0) sample (set to 100%) and the negative control included in the kit. Normalized activity or average normalized activity for animals and standard deviation is shown.
Healthy male Cynomolgus monkeys (Macaca fascicularis) received single subcutaneous administrations of each test substance. Compounds were formulated in 20 mM phosphate adjusted with NaOH to pH 7.5 and mannitol for isotonicity and dosed at 1840 nmol/kg. Blood was collected from a femoral vein from each animal at the following times: Pre-dose, 1, 2, 4, 8, 24, 48, 72, 96 and 120 h (10 sampling times). Blood was collected into serum separation tubes and allowed to clot at room temperature. The tubes were centrifuged and resulting serum was aliquoted and snap-frozen over dry-ice and stored at nominally −80° C. until analysis. All NHP studies were performed in accordance with animal welfare laws and regulations, including approval of the study by a local ethical review process.
Serum isolated from non-human primates at specific time points after dosing were analyzed for alternative pathway complement activity using the Complement system Alternative Pathway WIESLAB® kit from Svar Life Science (previously Euro diagnostic AB, Sweden) following the manufacturer's protocol. Briefly, serum samples or controls were diluted in buffer and incubated in microtitre strips coated with specific activators of the alternative pathway. The wells were washed and formed C5b-9 was detected using included colorimetric reagents.
Absorbance at 405 nm was measured. The percent activity of the alternative complement pathway was calculated for each animal and timepoint relative to the pre-dose activity (0 hours) of the individual animal with subtraction of the negative control. […]

Series [4] deals with T1, Human C3 (human, UniProt P01024 23-1663). Kind of series: cell-based or functional assay.
T1 sequence (P01024 23-1663 limits assumed): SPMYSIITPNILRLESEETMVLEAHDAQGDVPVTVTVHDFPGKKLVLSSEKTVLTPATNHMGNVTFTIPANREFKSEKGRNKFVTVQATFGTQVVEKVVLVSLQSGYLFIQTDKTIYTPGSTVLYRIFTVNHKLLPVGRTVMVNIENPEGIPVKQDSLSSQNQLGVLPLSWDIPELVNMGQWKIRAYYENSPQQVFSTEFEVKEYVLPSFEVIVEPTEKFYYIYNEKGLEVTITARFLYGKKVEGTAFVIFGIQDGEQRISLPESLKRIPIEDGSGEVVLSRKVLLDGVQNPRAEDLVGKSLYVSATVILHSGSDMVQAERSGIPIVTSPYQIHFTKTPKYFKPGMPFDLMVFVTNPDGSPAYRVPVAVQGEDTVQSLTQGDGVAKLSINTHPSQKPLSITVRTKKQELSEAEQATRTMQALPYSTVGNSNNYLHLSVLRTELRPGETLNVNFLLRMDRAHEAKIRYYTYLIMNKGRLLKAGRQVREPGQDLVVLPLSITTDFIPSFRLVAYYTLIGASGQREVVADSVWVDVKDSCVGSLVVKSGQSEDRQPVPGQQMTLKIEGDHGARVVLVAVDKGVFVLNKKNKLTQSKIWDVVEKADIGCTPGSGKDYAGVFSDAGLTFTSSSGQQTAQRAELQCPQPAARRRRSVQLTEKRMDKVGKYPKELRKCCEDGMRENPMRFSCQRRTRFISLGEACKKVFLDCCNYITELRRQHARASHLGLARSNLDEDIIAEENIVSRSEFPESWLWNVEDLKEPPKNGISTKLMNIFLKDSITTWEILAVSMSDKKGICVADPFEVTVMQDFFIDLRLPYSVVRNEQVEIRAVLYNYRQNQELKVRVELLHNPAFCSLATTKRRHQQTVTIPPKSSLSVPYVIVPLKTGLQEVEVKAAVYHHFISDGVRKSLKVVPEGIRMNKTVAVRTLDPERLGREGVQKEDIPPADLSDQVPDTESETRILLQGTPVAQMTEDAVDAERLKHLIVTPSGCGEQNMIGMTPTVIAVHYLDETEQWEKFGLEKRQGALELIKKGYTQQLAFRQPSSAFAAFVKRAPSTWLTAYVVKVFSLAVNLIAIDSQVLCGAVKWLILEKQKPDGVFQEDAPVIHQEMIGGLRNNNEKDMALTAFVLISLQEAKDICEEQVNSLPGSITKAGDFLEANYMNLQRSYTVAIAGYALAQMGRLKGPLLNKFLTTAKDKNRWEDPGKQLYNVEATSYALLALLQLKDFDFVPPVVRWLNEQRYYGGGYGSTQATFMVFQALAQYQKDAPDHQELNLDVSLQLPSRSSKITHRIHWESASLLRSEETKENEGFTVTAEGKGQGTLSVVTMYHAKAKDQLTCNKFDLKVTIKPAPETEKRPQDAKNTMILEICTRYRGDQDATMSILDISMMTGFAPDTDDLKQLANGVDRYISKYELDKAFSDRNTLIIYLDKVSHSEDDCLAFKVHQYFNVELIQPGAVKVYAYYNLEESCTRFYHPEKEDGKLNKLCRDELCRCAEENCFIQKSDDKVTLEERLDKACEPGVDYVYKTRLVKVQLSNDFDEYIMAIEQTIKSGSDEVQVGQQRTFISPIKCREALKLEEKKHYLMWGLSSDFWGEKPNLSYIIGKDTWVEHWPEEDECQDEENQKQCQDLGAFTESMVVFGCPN
For series [5], the target named is T1, Human C3. Description: cell-based or functional assay. This is another data set of the same source.

On to `CC[C@H](C)[C@@H]1NC(=O)[C@@H](NC(=O)[C@H](Cc2ccc(O)cc2)NC(=O)[C@H](C)NC(=O)[C@H](CO)NC(=O)CNC(=O)[C@H](CCC(=O)O)NC(C)=O)CSSC[C@@H](C(=O)N(C)CC(=O)N[C@@H](CCC(=O)O)C(N)=O)NC(=O)[C@H](CCCNC(=N)N)NC(=O)[C@H](Cc2c[nH]cn2)NC(=O)[C@H](CCC(=O)O)NC(=O)CNC(=O)[C@H](Cc2c[nH]c3ccccc23)NC(=O)[C@H](CC(=O)O)NC(=O)[C@H](CCC(N)=O)NC(=O)[C@H](Cc2cn(C)c3ccccc23)NC1=O` [Compound 54] (Ac-EGSAYCI[Trp(1-Me)]QDWGEHRC[Sar]E-NH2; disulfide 6-16), for which, in “in vivo”, the half-life – broadly, the time needed for the level to fall by half in the phase considered – was 9.71 h. Besides, in series [1], the “Solubility, Condition 1 Acetate pH 4” value was “− (denotes lack of solubility at the given condition, as UV absorbance at 340 nm exceeds 0.1 AU and/or it is visibly turbid or contains particles.)”; the “Solubility, Condition 2 Acetate pH 5” value was “− (denotes lack of solubility at the given condition, as UV absorbance at 340 nm exceeds 0.1 AU and/or it is visibly turbid or contains particles.)”; the “Solubility, Condition 3 Phosphate pH 6” value is “+ (denotes solubility at the given condition, as determined by UV absorbance being less than 0.1 AU at 340 nm and the sample being clear when manually inspected.)”; the “Solubility, Condition 4 Phosphate pH 7” value was “+ (denotes solubility at the given condition, as determined by UV absorbance being less than 0.1 AU at 340 nm and the sample being clear when manually inspected.)”. Besides, in series [1], the “Solubility, Condition 5 Phosphate pH 7.5” value is “+ (denotes solubility at the given condition, as determined by UV absorbance being less than 0.1 AU at 340 nm and the sample being clear when manually inspected.)”. In series [2], the IC50 – broadly, the concentration that inhibits the measured activity by half – was less than 100 nM. For the same molecule, the “Duration of pharmacological activity (alternative complement pathway activity) in vivo” value (shortened to “Duration of pharmacological activity”) in series [3] is recorded as “relatively short duration of action”.

For the molecule `CC[C@H](C)[C@H](NC(=O)[C@H](N)Cc1ccc(O)cc1)C(=O)N[C@H]1CSSC[C@@H](C(=O)N(C)[C@H](C(N)=O)[C@@H](C)CC)NC(=O)[C@H](CCCNC(=N)N)NC(=O)[C@H](Cc2c[nH]cn2)NC(=O)[C@H](C)NC(=O)CN(C)C(=O)[C@H](Cc2c[nH]c3ccccc23)NC(=O)[C@H](CC(=O)O)NC(=O)[C@H](CCC(N)=O)NC(=O)[C@H](Cc2cn(C)c3ccccc23)NC(=O)[C@H](C(C)C)NC1=O` [Cp40, H-{d}YIC(1)V[1-Me-Trp]QDW[Sar]AHRC(1)[N-Me-Ile]-NH2, reference compound], the half-life in the series “in vivo” was 31.8 h. In series [2], the half-maximal inhibitory concentration (IC50) is less than 100 nM. Besides, the “Duration of pharmacological activity” value in series [3] was “relatively short duration of action”.

The molecule `CC[C@H](C)[C@@H]1NC(=O)[C@@H](NC(=O)[C@H](Cc2ccccc2)NC(C)=O)CSSC[C@@H](C(=O)N[C@H](C(=O)NCC(=O)N[C@@H](C)C(=O)N[C@@H](CCC(=O)O)C(=O)N[C@@H](CO)C(N)=O)[C@@H](C)O)NC(=O)[C@H](CCCNC(=N)N)NC(=O)[C@H](Cc2c[nH]cn2)NC(=O)[C@H](CCC(=O)O)NC(=O)CNC(=O)[C@H](Cc2c[nH]c3ccccc23)NC(=O)[C@H](CC(=O)O)NC(=O)[C@H](CCC(N)=O)NC(=O)[C@H](Cc2cn(C)c3ccccc23)NC1=O` [Compound 61] (Ac-FCI[Trp(1-Me)]QDWGEHRCTGAES-NH2; disulfide 2-12) gave a half-life in “in vivo” of 23.3 h. In addition, in series [1], the “Solubility, Condition 1 Acetate pH 4” value is “− (denotes lack of solubility at the given condition, as UV absorbance at 340 nm exceeds 0.1 AU and/or it is visibly turbid or contains particles.)”; the “Solubility, Condition 2 Acetate pH 5” value is given as “− (denotes lack of solubility at the given condition, as UV absorbance at 340 nm exceeds 0.1 AU and/or it is visibly turbid or contains particles.)”; the “Solubility, Condition 3 Phosphate pH 6” value is “+ (denotes solubility at the given condition, as determined by UV absorbance being less than 0.1 AU at 340 nm and the sample being clear when manually inspected.)”; the “Solubility, Condition 4 Phosphate pH 7” value is “+ (denotes solubility at the given condition, as determined by UV absorbance being less than 0.1 AU at 340 nm and the sample being clear when manually inspected.)”. For the same molecule, the “Solubility, Condition 5 Phosphate pH 7.5” value in series [1] was “+ (denotes solubility at the given condition, as determined by UV absorbance being less than 0.1 AU at 340 nm and the sample being clear when manually inspected.)”. Further, the IC50 in series [2] is less than 100 nM. Also, the “Duration of pharmacological activity” value in series [3] is “relatively short duration of action”.

B1: Compound 1 (peptide)
peptide: Ac-ICIWQDWGAHRCT-NH2
modifications: disulfide 2-12
SMILES: CC[C@H](C)[C@H](NC(C)=O)C(=O)N[C@H]1CSSC[C@@H](C(=O)N[C@H](C(N)=O)[C@@H](C)O)NC(=O)[C@H](CCCNC(=N)N)NC(=O)[C@H](Cc2c[nH]cn2)NC(=O)[C@H](C)NC(=O)CNC(=O)[C@H](Cc2c[nH]c3ccccc23)NC(=O)[C@H](CC(=O)O)NC(=O)[C@H](CCC(N)=O)NC(=O)[C@H](Cc2c[nH]c3ccccc23)NC(=O)[C@H]([C@@H](C)CC)NC1=O
B1: the “IC50[nM], inhibition of hemolysis” value with Human C3 [4] was less than 250 nM. Moreover, the “CP hemolysis IC50” value with Human C3 [5] is 150 nM.
